# Reference: a melting point compilation (Tetko et al.; mined from patent text by program, amines drawn as free bases though some values may be those of a salt)
# Residues, ends and D or L forms follow the SMILES beside them.
row,Structure (SMILES),melting point
1,CN(c1cccc2cc(C3=NCC(CN4CCOCC4)S3)[nH]c12)S(=O)(=O)c1cccnc1 (stereo unspecified),234 to 236 °C
2,CC(=O)CN1CCNC1=Nc1cc2c(cc1Br)OCCO2,98 to 100 °C
3,c1ccc(C(NCc2ccc(CNC(c3ccccc3)c3ccccc3)cc2)c2ccccc2)cc1,92 to 94 °C
4,COC(=O)CCCCC(C)C1CCC2C3CCC4CC(OC=O)CCC4(C)C3CC(OC=O)C12C (stereo unspecified),67 to 72 °C
5,Nc1cc[nH]c(=O)c1Cl,264 to 267 °C
6,N#CCc1ccccc1O,118 °C
7,COCCOc1ccc(CN2C(=O)C3(COc4cc5c(cc43)OCCO5)c3ccccc32)cc1 (stereo unspecified),124 to 125 °C
8,Cc1nc(C)c(C(C)(O)c2ccoc2)o1 (stereo unspecified),93 to 95 °C
9,O=C(O)CCCOc1ccc(C2C3CC4CC(C3)CC2C4)cc1 (stereo unspecified),163 to 165 °C
10,CCC1N=C(c2ccccc2Cl)c2cc(CC(=O)OC)sc2-n2c(C)nnc21 (stereo unspecified),134 to 137 °C
11,Cc1ccc(Cc2ccc(-c3cnn4c(O)ncnc34)cc2)cc1,285 to 292 °C
12,CC(Cl)(Cl)c1nc2c(C(F)(F)F)cccc2c(=O)o1,120 °C
13,Cc1cc(N2N=CCNC2=O)cc(Cl)c1C(=O)c1ccc(Cl)cc1,171 to 172 °C
14,COC(=O)[C@]1(O)Cc2c(OC)ccc(OC)c2C2(C1)SCCS2,115 to 117 °C
15,N#Cc1ccccc1-c1ccc(CCl)cn1,97 to 98 °C
16,O=C(CCBr)NCC(=O)c1ccccc1,114 °C
17,CC(C)(C)OC(=O)NC(C(=O)NC1c2cc(C#N)ccc2OC(C)(C)C1O)c1ccccc1 (stereo unspecified),112 to 130 °C
18,CC(C)(CO)NS(=O)(=O)c1ccc(Cl)c(NC(=O)c2cnn3c(C(F)F)cc(-c4ccc(C(F)(F)F)cc4)nc23)c1,234 °C
19,CC(=O)OCC(=O)Nc1nc2c(Oc3cc(-c4ccc(C(F)(F)F)cc4)ncn3)cccc2s1,119 to 138 °C
20,COC(=O)c1ccc(I)c(O)c1,153 °C
21,COc1ccc2c(c1)CCN(Cc1cnc(C)nc1N)C2,142 to 143 °C
22,O=C(NCc1ccccn1)OCCOCCOC(=O)NCC1CCCCC1,65 to 67 °C
23,Cc1cc2c(cc1-n1c(C)ccc1C)OC(=O)C2C (stereo unspecified),94 to 95 °C

row,Structure (SMILES),melting point
1,CN(C)c1ccc(NC(=O)N(Cc2ccco2)C[C@@H]2CCC[C@H](CN(Cc3ccco3)C(=O)Nc3ccc(N(C)C)cc3)C2)cc1,68 to 73 °C
2,Oc1c(S)cc(I)cc1I,178 to 180 °C
3,CC(C)N(Sc1nc2ccccc2s1)C(C)C,57 to 59 °C
4,O=C(NCCc1c[nH]c2ccccc12)Oc1ccccc1,44 to 46 °C
5,O=C(c1ccccc1)c1c[nH]c(=O)[nH]1,329 to 330 °C
6,COC1CCN(S(=O)(=O)c2ccc([N+](=O)[O-])cc2C(F)(F)F)CC1,141 to 143 °C
7,CCOC(=O)c1cn(-c2ccc(OC)cc2)cn1,93 to 94 °C
8,Cn1c(=O)c(-c2ccccc2)nc2cc3c(cc21)OC(F)(F)O3,165 °C
9,O=C(c1n[nH]c2c(=O)[nH]c3cc(Cl)ccc3c(=O)c12)N1CCOCC1,347 °C
10,ClC(Cl)(Cl)C1NCCO1 (stereo unspecified),73 °C
11,CNCc1ccc2cc(OC)ccc2c1,96 to 104 °C
12,CC(C)COc1ccccc1-c1ccc(C(N)=O)c(=O)[nH]1,180 °C
13,CCOC(=O)CC(=O)c1cc(F)c(F)c(Br)c1Cl,47 to 51 °C
14,CN1CCOc2ccc(S(=O)(=O)n3c(Cc4ccc(C(=O)O)cc4)cc4cc(C(F)(F)F)ccc43)cc21,206 °C
15,Cc1cc2c(cc1N1CC(C)C(C)C1)OC(=O)C2C (stereo unspecified),104 to 105 °C
16,Cc1oc(-c2ccccc2)nc1COc1ccc(CON=C(CCCCCCC(=O)O)c2ccc(F)cc2)cc1,56 to 57 °C
17,COCC(C)Oc1cc(Oc2ccc(S(C)(=O)=O)cc2)cc2cc(C3=NCC(C(OC)OC)S3)[nH]c12 (stereo unspecified),109 to 112 °C
18,NC(=O)CNC(=O)[C@@H]1CCCN1 (H-Pro-Gly-NH2),124 to 127 °C
19,O=[N+]([O-])c1ccc(Br)cc1O,40 to 42 °C
20,O=[N+]([O-])c1cc(F)c(-c2ccc(C(F)(F)F)cc2)cc1F,113 to 114 °C
21,CCOC(=O)N1CCC(Nc2nccc(Oc3ccc(NC(=O)c4cc(F)cc(N5CCOCC5)c4)c4ccccc34)n2)CC1,122 to 124 °C
22,Fc1ccc(OCCN2CCC(CNc3nc4ccccc4s3)CC2)cc1,117 °C
23,O=C(O)c1ccc(CCCC2SCC(=O)N2CCC2(O)CCSCC2)cc1 (stereo unspecified),157 to 158 °C

row,Structure (SMILES),melting point
1,CON(C)C(=O)NC(CSC(C)=O)Cc1ccccc1 (stereo unspecified),68 to 70 °C
2,CCCn1cc(Cc2ccc(C(=O)NS(=O)(=O)c3ccccc3C)cc2OC)c2cc(CCC(C)C(=O)N(C)C)ccc21 (stereo unspecified),90 to 93 °C
3,CC(C)Cc1nc(Cc2ccccc2)c2c(c1O)COC2,174 to 175 °C
4,CN(C)CC(=O)Nc1ccc2c(c1)C(=O)c1cc(NC(=O)CN(C)C)ccc1C2=O,218 °C
5,CC1(C)CCC(C)(C)c2cc(-c3nnc(-c4ccc(C(N)=O)cc4)o3)ccc21,272 to 274 °C
6,COc1ccc(/C=C/c2nc3c(c(=O)n(C)c(=O)n3C)n2C)c(OC)c1OC,187 to 188 °C
7,CC1(C(O)C(Cc2ccc(Cl)cc2)n2cncn2)COCOC1 (stereo unspecified),152 to 154 °C
8,CC(C)N(C1CCCC1)S(=O)(=O)N[C@@H](Cc1ccc(NC(=O)c2c(Cl)cncc2Cl)cc1)C(=O)O,157 °C
9,COC1(c2ccc(C#Cc3cc(F)cc(F)c3NC(=O)C(C)(C)C)cc2)CCOCC1,77 to 79 °C
10,CCN(CC)CCNc1ccc(C)c2sc3ccc(OC)cc3c(=O)c12,81 to 82 °C
11,N#Cc1ccc(-c2cc(-c3ccc(C#N)cc3[N+](=O)[O-])on2)cc1,280 to 281 °C
12,CC(C)(C)NC(=O)[C@@H]1C[C@@H](O)CN1C(=O)OC(C)(C)C,192 to 193 °C
13,CCOC(=O)c1cnc2ccn(-c3ccccc3)n2c1=O,187 to 190 °C
14,O=C(O)c1ccc2c(c1)C(=O)c1ccccc1OC2,264 to 269 °C
15,Brc1cccc(-c2ccnn2-c2ccc3c(c2)OCO3)c1,195 to 197 °C
16,CC(C)(C)c1cc2c(cc1O)C(C)(C)CC2(C)C,114 °C
17,CC(C)CC(NC(=O)Cc1ccc(NC(=O)Nc2ccccc2F)cc1)c1ncc(CCC(=O)O)s1 (stereo unspecified),83 to 85 °C
18,COC12CC(C)(c3nc(-c4cncc(Br)c4)no3)CN(C)C1Cc1cn(C)c3cccc2c13 (stereo unspecified),185 to 189 °C
19,C[C@H](NC(=O)c1ncc[nH]1)C(=O)NC(C=O)CC(=O)O (stereo partly specified),115 °C
20,COc1cc2cc(C(=O)OCc3ccccc3)n(CC(=O)OC(C)(C)C)c2cn1,110 °C
21,CC(=O)Nc1ccc(C(F)(F)F)cc1C,160 °C

# Other lines, results leading:
row,melting point,Structure (SMILES)
1,89 °C,CC1CCN(c2ccc(N)cc2C(=O)c2ccc(Cl)cc2)CC1
2,141 to 142 °C,COC(=O)C1C(N2C(=O)c3ccccc3C2=O)C(=O)N1Cc1ccc(OC)cc1 (stereo unspecified)
3,135 to 136 °C,CCN(c1ccc(SC)cc1[N+](=O)[O-])S(=O)(=O)c1ccc(C)cc1
4,244 °C,O=C(NCC(=O)N(c1ccccc1)c1ccccc1)Nc1cccc(O)c1
5,170 to 172 °C,FC(F)(F)CNC(=S)Nc1cncc(Cl)n1
6,54 to 55 °C,COCOc1cc(C(=O)OC)[nH]n1
7,126 °C,CCCCN(C=NC1=C(C(=O)OCC)C(c2ccccc2Cl)C(C(=O)OCC)=C(C)N1)CCCC (stereo unspecified)
8,111 to 113 °C,COC(=O)Nc1ccccc1CSc1ncc(C(F)(F)F)cc1Cl
9,> 260 °C,O=C(O)c1ccc(-c2ccc(Cl)cc2)nc1
10,145 to 147 °C,COc1ccc(C(CC(C)=O)N2C(=O)c3cccc(NC(C)=O)c3C2=O)cc1OC1CCCC1 (stereo unspecified)
11,86 °C,CCCN=C(Cc1ccccc1)N1CC2C(=O)CCC(c3ccccc3)(c3ccccc3)C2C1 (stereo unspecified)
12,133 to 135 °C,Cc1c(C)c2c(c(C)c1O)CCC(C)(C#Cc1cccs1)O2 (stereo unspecified)
13,132 to 134 °C,CCn1cc(-c2ccc3nnn(Cc4ccc5ncccc5c4)c3n2)cn1
14,95 to 96 °C,COC(=O)c1ccccc1OCNC(=O)OC(C)(C)C
15,147 to 150 °C,Cc1c(C)c2c(c(C)c1N)CC(C)(CN1C(=O)c3ccccc3C1=O)O2 (stereo unspecified)
16,214 to 216 °C,CS(=O)(=O)Nc1cc(C(c2cc(F)ccc2F)S(=O)(=O)c2ccc(Cl)cn2)c(Cl)cn1 (stereo unspecified)
17,130 to 132 °C,CN1CCN(C(=O)c2ccc([N+](=O)[O-])cc2[N+](=O)[O-])CC1

row,melting point,Structure (SMILES)
1,48 to 50 °C,CC(C)(C)C(=O)C(Br)Cc1ccc(Cl)cc1 (stereo unspecified)
2,141 to 142 °C,OCCNc1nc(NCc2ccccc2)c2ncc(Nc3ncccn3)cc2n1
3,184 °C,Cn1cc(-c2cc(F)c(F)c(OC3SCC(O)C(O)C3O)c2)cn1 (stereo unspecified)
4,177 to 178 °C,COC1CCN(c2ccn3nc(-c4ccccc4)c(-c4ccc(=O)n(C(C)C)n4)c3c2)CC1
5,129 to 130 °C,COC(=O)c1nc(OC)c2ccccc2n1
6,160 °C,CC(=O)OC1C(Oc2cc(C)cc(O)c2C(=O)CCc2ccc3occc3c2)OC(CO)C(O)C1O (stereo unspecified)
7,218 to 220 °C,NC(=O)Cc1nc2ccnc(-c3cccc(C(F)(F)F)c3)n2n1
8,218 °C,O=C(Nc1ncc(C(F)(F)F)o1)C1c2ccccc2Oc2ccccc21
9,130 to 134 °C,O=C(NOC1CCCCO1)c1ccccc1 (stereo unspecified)
10,249 to 250 °C,CC(=NNC(N)=O)c1ccc2nnn(Cc3ccc4ncccc4c3)c2n1
11,115 to 116 °C,CC(CO)NC(=O)COc1cc(Cl)ccc1C(=O)NCCN1CCN(Cc2ccc(Cl)c(Cl)c2)CC1 (stereo unspecified)
12,118 to 119 °C,CCCCCCCCCC(=O)c1ccc(O)c(C(=O)O)c1
13,174 °C,c1cc2cc3cnccc3cc2cn1
14,135 to 138 °C,Cc1nnc2n1-c1sc(CCCN3CCOCC3)cc1C(c1ccccc1Cl)NC2 (stereo unspecified)
15,150 °C,Nc1cc(O)cc(O)c1
16,172 to 175 °C,O=C(NC1CCCCC1)c1ccc(-c2ccc3nnn(Cc4ccc5ncccc5c4)c3n2)cc1F
17,250 °C,O=C(O)C(Cc1cc(Oc2c(Cl)cc(C(F)(F)F)cc2Cl)ccc1SC(F)(F)F)C(=O)O
